Experimental data as given in ChEMBL document CHEMBL3526083, “Prediction of relative in vivo metabolite exposure from in vitro data using two model drugs: dextromethorphan and omeprazole” (Drug Metab Dispos, 2012).

Experiments:
[1] = biological target: T1, UDP-glucuronosyltransferase 2B17 (Homo sapiens, UniProt O75795); assay: Drug metabolism assessed as recombinat UGT2B17 (unknown origin) -mediated dextrophan-O-glucuronide formation; format: ADME
T1 sequence (O75795 whole entry): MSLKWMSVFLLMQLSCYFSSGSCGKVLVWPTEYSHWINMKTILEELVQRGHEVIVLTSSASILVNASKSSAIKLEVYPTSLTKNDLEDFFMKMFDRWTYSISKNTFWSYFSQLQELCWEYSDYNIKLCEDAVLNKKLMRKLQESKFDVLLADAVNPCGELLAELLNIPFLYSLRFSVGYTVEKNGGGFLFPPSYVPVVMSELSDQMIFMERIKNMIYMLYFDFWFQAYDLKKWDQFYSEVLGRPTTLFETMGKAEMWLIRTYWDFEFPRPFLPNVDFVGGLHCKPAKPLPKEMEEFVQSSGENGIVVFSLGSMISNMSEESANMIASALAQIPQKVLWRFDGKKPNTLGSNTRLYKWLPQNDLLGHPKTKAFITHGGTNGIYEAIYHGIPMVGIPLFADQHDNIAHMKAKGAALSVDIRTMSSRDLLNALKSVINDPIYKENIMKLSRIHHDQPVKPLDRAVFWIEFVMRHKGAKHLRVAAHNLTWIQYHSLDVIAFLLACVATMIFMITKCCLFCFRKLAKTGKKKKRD

[2] = biological target: T2, UDP-glucuronosyltransferase 1A7 (Homo sapiens, UniProt Q9HAW7); assay: Drug metabolism assessed as recombinat UGT1A7 (unknown origin) -mediated dextrophan-O-glucuronide formation; format: ADME
T2 sequence (Q9HAW7 whole entry): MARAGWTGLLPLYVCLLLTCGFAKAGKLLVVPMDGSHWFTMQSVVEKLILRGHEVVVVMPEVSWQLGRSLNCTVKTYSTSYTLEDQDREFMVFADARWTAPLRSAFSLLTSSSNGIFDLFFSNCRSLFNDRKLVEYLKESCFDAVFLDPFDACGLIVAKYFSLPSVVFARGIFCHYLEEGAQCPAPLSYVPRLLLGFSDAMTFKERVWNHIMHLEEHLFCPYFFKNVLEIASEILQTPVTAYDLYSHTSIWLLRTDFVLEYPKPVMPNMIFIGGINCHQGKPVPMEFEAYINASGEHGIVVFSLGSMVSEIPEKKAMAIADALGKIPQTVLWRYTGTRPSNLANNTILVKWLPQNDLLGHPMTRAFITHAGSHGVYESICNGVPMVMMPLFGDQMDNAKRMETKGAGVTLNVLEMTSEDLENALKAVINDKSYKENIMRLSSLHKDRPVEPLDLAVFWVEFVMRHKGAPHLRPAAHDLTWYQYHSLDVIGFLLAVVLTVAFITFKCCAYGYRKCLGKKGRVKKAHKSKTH

[3] = biological target: T3, UDP-glucuronosyltransferase 1A8 (Homo sapiens, UniProt Q9HAW9); assay: Drug metabolism assessed as recombinat UGT1A8 (unknown origin) -mediated dextrophan-O-glucuronide formation; format: ADME
T3 sequence (Q9HAW9 whole entry): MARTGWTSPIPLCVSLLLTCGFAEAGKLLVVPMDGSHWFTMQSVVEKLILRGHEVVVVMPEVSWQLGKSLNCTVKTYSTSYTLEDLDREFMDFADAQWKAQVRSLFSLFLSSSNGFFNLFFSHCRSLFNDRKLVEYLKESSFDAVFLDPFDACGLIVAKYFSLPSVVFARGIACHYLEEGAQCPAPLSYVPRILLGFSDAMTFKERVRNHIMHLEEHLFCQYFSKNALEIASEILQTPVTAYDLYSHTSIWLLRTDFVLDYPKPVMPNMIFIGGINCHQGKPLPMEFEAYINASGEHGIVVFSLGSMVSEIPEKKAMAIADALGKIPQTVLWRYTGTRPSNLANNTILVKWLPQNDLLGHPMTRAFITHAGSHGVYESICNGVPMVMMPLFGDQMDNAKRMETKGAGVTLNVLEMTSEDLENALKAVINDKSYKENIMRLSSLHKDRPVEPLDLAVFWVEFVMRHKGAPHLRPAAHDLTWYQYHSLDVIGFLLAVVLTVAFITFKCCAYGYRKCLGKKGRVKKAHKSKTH

Homo sapiens = assay: Ratio of AUC for compound to dexttomethorphan in human treated with 30 to 60 mg, po dexttomethorphan; format: ADME, organism-based; conditions: in vivo
Liver microsome [4] = assay: Drug metabolism in human liver microsomes assessed as 3-hydroxymorphinan formation; format: ADME
Liver microsome [5] = assay: Drug metabolism in human liver microsomes assessed as 3-hydroxymorphinan formation measured as microsomal fraction unbound; format: ADME
Liver microsome [6] = assay: Drug metabolism in human liver microsomes assessed as 3-hydroxymorphinan formation measured as intrinsic clearance; format: ADME
Liver microsome [7] = assay: Drug metabolism in human liver microsomes assessed as dextrophan-O-glucuronide formation measured as intrinsic unbound clearance; format: ADME
Liver microsome [8] = assay: Drug metabolism in human liver microsomes assessed as dextrophan-O-glucuronide formation measured as plasma fraction unbound; format: ADME, cell-free
Liver microsome [9] = assay: Drug metabolism in human liver microsomes assessed as dextrophan-O-glucuronide formation measured as microsomal fraction unbound in presence of 2% BSA; format: ADME
Liver microsome [10] = assay: Drug metabolism in human liver microsomes assessed as dextrophan-O-glucuronide formation measured as intrinsic unbound clearance in presence of 2% BSA; format: ADME
[11] = biological target: T4, UDP-glucuronosyltransferase 2B15 (Homo sapiens, UniProt P54855); assay: Drug metabolism assessed as recombinat UGT2B15 (unknown origin) -mediated dextrophan-O-glucuronide formation; format: ADME
T4 sequence (P54855 whole entry): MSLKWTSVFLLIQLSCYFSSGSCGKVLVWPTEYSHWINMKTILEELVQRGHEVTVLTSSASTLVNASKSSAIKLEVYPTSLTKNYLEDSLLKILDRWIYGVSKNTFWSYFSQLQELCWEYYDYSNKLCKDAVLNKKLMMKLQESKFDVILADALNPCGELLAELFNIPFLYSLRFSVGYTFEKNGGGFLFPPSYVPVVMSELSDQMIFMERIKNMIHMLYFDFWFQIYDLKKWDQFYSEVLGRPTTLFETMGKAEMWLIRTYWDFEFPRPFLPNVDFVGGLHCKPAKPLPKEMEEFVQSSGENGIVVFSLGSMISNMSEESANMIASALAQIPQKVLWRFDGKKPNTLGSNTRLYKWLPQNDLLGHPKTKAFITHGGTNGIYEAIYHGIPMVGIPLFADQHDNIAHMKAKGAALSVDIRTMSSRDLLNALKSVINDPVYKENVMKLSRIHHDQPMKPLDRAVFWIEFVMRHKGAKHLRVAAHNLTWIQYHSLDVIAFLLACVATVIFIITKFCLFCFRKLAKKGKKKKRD

For `CN1CC[C@@]23CCCC[C@@H]2[C@@H]1Cc1ccc(O)cc13` [DEXTRORPHAN], the Drug metabolism [1] was “metabolite_detected”, the Drug metabolism [2] was “metabolite_not_detected” and the Drug metabolism [3] was “metabolite_not_detected”. The “Ratio AUC” value (Homo sapiens) was 0.61, the Km (Liver microsome [4]) was 910 µM and the Fu (Liver microsome [5]) was 1. The CLH (Liver microsome [6]) was 0.88 µL/min/mg, the CL free (Liver microsome [7]) was 2.9 µL/min/mg and the Fu (Liver microsome [8]) was 0.55. The Fu (Liver microsome [9]) was 0.88, the CL free (Liver microsome [10]) was 12 µL/min/mg and the Drug metabolism [11] was “metabolite_detected”.
